Test results as given in patent publication US12110294B2, “CD73 compounds” (Gilead Sciences, Inc., priority 2020, dated 2024).

The compounds below were run against T1, CD73 activity in MDA-MB-231-GFP cells (Homo sapiens, UniProt P21589) (assay: MDA-MB-231 Cell Based CD73 Activity Assay (DMEM)). Details: 3000 cells per well, DMEM medium with 10% human plasma, overnight compound treatment, AMP 200 uM.
T1 construct: endogenous in cells; host or cells: MDA-MB-231-GFP cells
T1 sequence (P21589 27-549): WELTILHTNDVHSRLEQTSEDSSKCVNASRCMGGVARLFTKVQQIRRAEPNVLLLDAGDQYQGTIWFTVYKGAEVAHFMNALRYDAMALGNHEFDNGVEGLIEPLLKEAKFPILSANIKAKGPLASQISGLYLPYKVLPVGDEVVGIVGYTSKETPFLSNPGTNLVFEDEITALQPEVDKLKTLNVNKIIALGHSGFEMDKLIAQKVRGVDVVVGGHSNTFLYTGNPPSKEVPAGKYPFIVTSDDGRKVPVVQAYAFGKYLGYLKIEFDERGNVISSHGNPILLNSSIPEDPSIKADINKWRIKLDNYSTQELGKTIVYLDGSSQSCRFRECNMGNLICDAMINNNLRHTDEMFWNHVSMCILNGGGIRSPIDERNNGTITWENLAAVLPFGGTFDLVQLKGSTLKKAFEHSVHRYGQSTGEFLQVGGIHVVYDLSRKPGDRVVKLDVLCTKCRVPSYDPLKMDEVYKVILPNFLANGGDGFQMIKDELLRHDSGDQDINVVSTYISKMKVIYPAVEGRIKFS
Experimental: MDA-MB-231 Cell Based CD73 Activity Assay (DMEM) MDA-MB-231-GFP cells were seeded in 384-well plates (Greiner 781946) at a density of 3000 cells per well in 50 μL of DMEM medium with 10% HP (human plasma). Cells were plated into assay plate with compounds pre-spotted, for an overnight compound treatment. 50 uL of 400 uM AMP (final concentration will be 200 uM) was added using Bio-tek dispenser. Plates were incubated for 100 mins. […] The samples were analyzed using Rapid fire.
With Cn1cc([C@H]2C[C@@H]2c2cc(-c3c[nH]c(=O)[nH]c3=O)nn3ccnc23)ccc1=O (racemic) [Example 184, 5-(8-((1S,2S)-2-(1-methyl-6-oxo-1,6-dihydropyridin-3-yl)cyclopropyl)imidazo[1,2-b]pyridazin-6-yl)pyrimidine-2,4(1H,3H)-dione] the EC50 was 9.45 nM. CC1(C)C(=O)N(CC(F)(F)F)c2cc([C@H]3C[C@@H]3c3cc(-c4c[nH]c(=O)[nH]c4=O)nn4c(Cl)cnc34)ccc21 (racemic) [Example 212, 5-[3-chloro-8-[(1S,2S)-2-[3,3-dimethyl-2-oxo-1-(2,2,2-trifluoroethyl)indolin-6-yl]cyclopropyl]imidazo[1,2-b]pyridazin-6-yl]-1H-pyrimidine-2,4-dione] was tested, and the EC50 was 0.72 nM. For O=c1[nH]cc(-c2cc([C@H]3C[C@@H]3c3ccc4c(F)nn(CC(F)(F)F)c4c3)c3ncc(Cl)n3n2)c(=O)[nH]1 (racemic) [Example 213, 5-[3-chloro-8-[(1S,2S)-2-[3-fluoro-1-(2,2,2-trifluoroethyl)indazol-6-yl]cyclopropyl]imidazo[1,2-b]pyridazin-6-yl]-1H-pyrimidine-2,4-dione], the EC50 was 0.45 nM. For O=c1[nH]cc(-c2cc([C@H]3C[C@@H]3c3ccc4ncsc4c3)c3nccn3n2)c(=O)[nH]1 (racemic) [Example 276, 5-(8-((1S,2S)-2-(benzo[d]thiazol-6-yl)cyclopropyl)imidazo[1,2-b]pyridazin-6-yl)pyrimidine-2,4(1H,3H)-dione], the EC50 was 2.78 nM. Compound O=c1[nH]cc(-c2cc([C@H]3C[C@@H]3c3ccc4c(c3)OC(F)(F)O4)c3ncc(F)n3n2)c(=O)[nH]1 (racemic) [Example 278, 5-(8-((2S,2S)-2-(2,2-difluorobenzo[d][1,3]dioxol-5-yl)cyclopropyl)-3-fluoroimidazo[1,2-b]pyridazin-6-yl)pyrimidine-2,4(1H,3H)-dione] has an EC50 of 38.9 nM. O=c1[nH]cc(-c2cc([C@H]3C[C@@H]3c3ccc(OC(F)(F)F)cc3F)c3nccn3n2)c(=O)[nH]1 (racemic) [Example 280, 5-(8-((1S,2S)-2-(2-fluoro-4-(trifluoromethoxy)phenyl)cyclopropyl)imidazo[1,2-b]pyridazin-6-yl)pyrimidine-2,4(1H,3H)-dione] showed an EC50 of 77.8 nM. With COC(=O)c1ccc([C@H]2C[C@@H]2c2cc(-c3c[nH]c(=O)[nH]c3=O)nn3ccnc23)cc1 (racemic) [Example 281, methyl 4-((2S,2S)-2-(6-(2,4-dioxo-1,2,3,4-tetrahydropyrimidin-5-yl)imidazo[1,2-b]pyridazin-8-yl)cyclopropyl)benzoate] the EC50 was 8.23 nM. In the case of COC(=O)c1cccc([C@H]2C[C@@H]2c2cc(-c3c[nH]c(=O)[nH]c3=O)nn3ccnc23)c1 (racemic) [Example 282, methyl 3-((2S,2S)-2-(6-(2,4-dioxo-1,2,3,4-tetrahydropyrimidin-5-yl)imidazo[1,2-b]pyridazin-8-yl)cyclopropyl)benzoate], the EC50 is reported as 11.7 nM. NC(=O)c1cccc([C@H]2C[C@@H]2c2cc(-c3c[nH]c(=O)[nH]c3=O)nn3ccnc23)c1 (racemic) [Example 284, 3-((1S,2S)-2-(6-(2,4-dioxo-1,2,3,4-tetrahydropyrimidin-5-yl)imidazo[1,2-b]pyridazin-8-yl)cyclopropyl)benzamide] showed an EC50 of 3.49 nM. For CNC(=O)c1ccc([C@H]2C[C@@H]2c2cc(-c3c[nH]c(=O)[nH]c3=O)nn3ccnc23)cc1 (racemic) [Example 285, 4-((2S,2S)-2-(6-(2,4-dioxo-1,2,3,4-tetrahydropyrimidin-5-yl)imidazo[1,2-b]pyridazin-8-yl)cyclopropyl)-N-methylbenzamide], the EC50 was 2.99 nM. In the case of CNC(=O)c1cccc([C@H]2C[C@@H]2c2cc(-c3c[nH]c(=O)[nH]c3=O)nn3ccnc23)c1 (racemic) [Example 286, 3-((2S,2S)-2-(6-(2,4-dioxo-1,2,3,4-tetrahydropyrimidin-5-yl)imidazo[1,2-b]pyridazin-8-yl)cyclopropyl)-N-methylbenzamide], the EC50 is reported as 2.42 nM. CN(C)C(=O)c1cccc([C@H]2C[C@@H]2c2cc(-c3c[nH]c(=O)[nH]c3=O)nn3ccnc23)c1 (racemic) [Example 287, 3-((2S,2S)-2-(6-(2,4-dioxo-1,2,3,4-tetrahydropyrimidin-5-yl)imidazo[1,2-b]pyridazin-8-yl)cyclopropyl)-N,N-dimethylbenzamide] gave an EC50 of 12.5 nM. Compound CN(C)C(=O)c1ccc([C@H]2C[C@@H]2c2cc(-c3c[nH]c(=O)[nH]c3=O)nn3ccnc23)cc1 (racemic) [Example 288, 4-((2S,2S)-2-(6-(2,4-dioxo-1,2,3,4-tetrahydropyrimidin-5-yl)imidazo[1,2-b]pyridazin-8-yl)cyclopropyl)-N,N-dimethylbenzamide] has an EC50 of 35.7 nM. For O=C(c1ccc([C@H]2C[C@@H]2c2cc(-c3c[nH]c(=O)[nH]c3=O)nn3ccnc23)cc1)N1CCC1 (racemic) [Example 289, 5-(8-((2S,2S)-2-(4-(azetidine-1-carbonyl)phenyl)cyclopropyl)imidazo[1,2-b]pyridazin-6-yl)pyrimidine-2,4(1H,3H)-dione], the EC50 was 7.24 nM. CC1CN(C(=O)c2ccc([C@H]3C[C@@H]3c3cc(-c4c[nH]c(=O)[nH]c4=O)nn4ccnc34)cc2)C1 (racemic) [Example 290, 5-(8-((2S,2S)-2-(4-(3-methylazetidine-1-carbonyl)phenyl)cyclopropyl)imidazo[1,2-b]pyridazin-6-yl)pyrimidine-2,4(1H,3H)-dione] was tested, and the EC50 was 9.64 nM. O=C(c1ccc([C@H]2C[C@@H]2c2cc(-c3c[nH]c(=O)[nH]c3=O)nn3ccnc23)cc1)N1CC(C(F)(F)F)C1 (racemic) [Example 291, 5-(8-((1S,2S)-2-(4-(3-(trifluoromethyl)azetidine-1-carbonyl)phenyl)cyclopropyl)imidazo[1,2-b]pyridazin-6-yl)pyrimidine-2,4(1H,3H)-dione] gave an EC50 of 18.6 nM. In the case of O=C(c1ccc([C@H]2C[C@@H]2c2cc(-c3c[nH]c(=O)[nH]c3=O)nn3ccnc23)cc1)N1CC(F)(F)C1 (racemic) [Example 292, 5-(8-((1S,2S)-2-(4-(3,3-difluoroazetidine-1-carbonyl)phenyl)cyclopropyl)imidazo[1,2-b]pyridazin-6-yl)pyrimidine-2,4(1H,3H)-dione], the EC50 is reported as 5.72 nM. CC1(C)CN(C(=O)c2ccc([C@H]3C[C@@H]3c3cc(-c4c[nH]c(=O)[nH]c4=O)nn4ccnc34)cc2)C1 (racemic) [Example 293, 5-(8-((2S,2S)-2-(4-(3,3-dimethylazetidine-1-carbonyl)phenyl)cyclopropyl)imidazo[1,2-b]pyridazin-6-yl)pyrimidine-2,4(1H,3H)-dione] gave an EC50 of 8.8 nM. O=C(c1cccc([C@H]2C[C@@H]2c2cc(-c3c[nH]c(=O)[nH]c3=O)nn3ccnc23)c1)N1CCC1 (racemic) [Example 294, 5-(8-((2S,2S)-2-(3-(azetidine-1-carbonyl)phenyl)cyclopropyl)imidazo[1,2-b]pyridazin-6-yl)pyrimidine-2,4(1H,3H)-dione] showed an EC50 of 1.32 nM. In the case of CC1CN(C(=O)c2cccc([C@H]3C[C@@H]3c3cc(-c4c[nH]c(=O)[nH]c4=O)nn4ccnc34)c2)C1 (racemic) [Example 295, 5-(8-((1S,2S)-2-(3-(3-methylazetidine-1-carbonyl)phenyl)cyclopropyl)imidazo[1,2-b]pyridazin-6-yl)pyrimidine-2,4(1H,3H)-dione], the EC50 is reported as 1.97 nM. With O=C(c1cccc([C@H]2C[C@@H]2c2cc(-c3c[nH]c(=O)[nH]c3=O)nn3ccnc23)c1)N1CC(C(F)(F)F)C1 (racemic) [Example 296, 5-(8-((2S,2S)-2-(3-(3-(trifluoromethyl)azetidine-1-carbonyl)phenyl)cyclopropyl)imidazo[1,2-b]pyridazin-6-yl)pyrimidine-2,4(1H,3H)-dione] the EC50 was 4.38 nM. With O=C(c1cccc([C@H]2C[C@@H]2c2cc(-c3c[nH]c(=O)[nH]c3=O)nn3ccnc23)c1)N1CC(F)(F)C1 (racemic) [Example 297, 5-(8-((2S,2S)-2-(3-(3,3-difluoroazetidine-1-carbonyl)phenyl)cyclopropyl)imidazo[1,2-b]pyridazin-6-yl)pyrimidine-2,4(1H,3H)-dione] the EC50 was 1.31 nM. CC1(C)CN(C(=O)c2cccc([C@H]3C[C@@H]3c3cc(-c4c[nH]c(=O)[nH]c4=O)nn4ccnc34)c2)C1 (racemic) [Example 298, 5-(8-((2S,2S)-2-(3-(3,3-dimethylazetidine-1-carbonyl)phenyl)cyclopropyl)imidazo[1,2-b]pyridazin-6-yl)pyrimidine-2,4(1H,3H)-dione] gave an EC50 of 2.81 nM. For O=C(c1ccc([C@H]2C[C@@H]2c2cc(-c3c[nH]c(=O)[nH]c3=O)nn3ccnc23)cc1)N1C[C@@H](F)[C@H](F)C1 (racemic) [Example 299], the EC50 was 24.5 nM. For O=C(c1cccc([C@H]2C[C@@H]2c2cc(-c3c[nH]c(=O)[nH]c3=O)nn3ccnc23)c1)N1C[C@@H](F)[C@H](F)C1 (racemic) [Example 300, 5-(8-((2S,2S)-2-(3-((3R,4R)-3,4-difluoropyrrolidine-1-carbonyl)phenyl)cyclopropyl)imidazo[1,2-b]pyridazin-6-yl)pyrimidine-2,4(1H,3H)-dione], the EC50 was 1.34 nM.
